From ChEMBL document CHEMBL1201862, “PubChem BioAssay data set” (2004)
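All cell lines were grown in 96-well plates and treated with compound for 48 hours. GI50 = concentration required for 50% inhibition of growth.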 Calls of active or inactive are those of the source. Cut-off read from the data, not from the text of the source: active = GI50 up to about 1.1 µM and inactive = higher.

How the values were obtained:
Assay in all cases: NCI-60 cell line screen, 48 h
DLD-1 = tested on: DLD-1
XF498 = tested on: XF498
COLO 205 = tested on: COLO 205
KM12 = tested on: KM12
KM-20L2 = tested on: KM-20L2
A498 = tested on: A498
LOX IMVI = tested on: LOX IMVI
LXFL 529 = tested on: LXFL 529
HOP-92 = tested on: HOP-92
SNB-78 = tested on: SNB-78
DMS-273 = tested on: DMS-273
CCRF-CEM = tested on: CCRF-CEM
A549 = tested on: A549
IGROV-1 = tested on: IGROV-1
HT-29 = tested on: HT-29
UACC-257 = tested on: UACC-257
OVCAR-3 = tested on: OVCAR-3
NCI-H522 = tested on: NCI-H522
U-251 = tested on: U-251
SNB-75 = tested on: SNB-75
HL-60 = tested on: HL-60
RPMI-8226 = tested on: RPMI-8226
SW-620 = tested on: SW-620
M19-MEL = tested on: M19-MEL
HOP-18 = tested on: HOP-18
HOP-62 = tested on: HOP-62
NCI-H23 = tested on: NCI-H23
K562 = tested on: K562
RXF 631 = tested on: RXF 631
CAKI-1 = tested on: CAKI-1
SK-MEL-28 = tested on: SK-MEL-28
SF-295 = tested on: SF-295
786-0 = tested on: 786-0
OVCAR-5 = tested on: OVCAR-5
HCT-15 = tested on: HCT-15
M14 = tested on: M14
SNB-19 = tested on: SNB-19
HCC 2998 = tested on: HCC 2998
SN12C = tested on: SN12C
DMS-114 = tested on: DMS-114
SF-539 = tested on: SF-539
ACHN = tested on: ACHN
NCI-H460 = tested on: NCI-H460
TK-10 = tested on: TK-10
NCI-H226 = tested on: NCI-H226
OVCAR-4 = tested on: OVCAR-4
Malme-3M = tested on: Malme-3M
UO-31 = tested on: UO-31
UACC-62 = tested on: UACC-62
OVCAR-8 = tested on: OVCAR-8
SK-MEL-5 = tested on: SK-MEL-5
SK-MEL-2 = tested on: SK-MEL-2
SK-OV-3 = tested on: SK-OV-3
SF-268 = tested on: SF-268
EKVX = tested on: EKVX
MOLT-4 = tested on: MOLT-4
RXF 393 = tested on: RXF 393
HCT-116 = tested on: HCT-116
SR = tested on: SR

## COc1ccc(NC(=O)NS(=O)(=O)c2ccc(C)cc2)nn1
DLD-1
  GI50: > 100 µM (inactive)
XF498
  GI50: > 100 µM (inactive)
COLO 205
  GI50: > 100 µM (inactive)
KM12
  GI50: > 100 µM (inactive)
KM-20L2
  GI50: > 100 µM (inactive)
A498
  GI50: > 100 µM (inactive)
LOX IMVI
  GI50: > 100 µM (inactive)
LXFL 529
  GI50: > 100 µM (inactive)
HOP-92
  GI50: > 100 µM (inactive)
SNB-78
  GI50: > 100 µM (inactive)
DMS-273
  GI50: > 100 µM (inactive)
CCRF-CEM
  GI50: > 100 µM (inactive)
A549
  GI50: > 100 µM (inactive)
IGROV-1
  GI50: > 100 µM (inactive)
HT-29
  GI50: > 100 µM (inactive)
UACC-257
  GI50: > 100 µM (inactive)
OVCAR-3
  GI50: > 100 µM (inactive)
NCI-H522
  GI50: > 100 µM (inactive)
U-251
  GI50: > 100 µM (inactive)
SNB-75
  GI50: > 100 µM (inactive)
HL-60
  GI50: > 100 µM (inactive)
RPMI-8226
  GI50: > 100 µM (inactive)
SW-620
  GI50: > 100 µM (inactive)
M19-MEL
  GI50: > 100 µM (inactive)
HOP-18
  GI50: > 100 µM (inactive)
HOP-62
  GI50: > 100 µM (inactive)
NCI-H23
  GI50: > 100 µM (inactive)
K562
  GI50: > 100 µM (inactive)
RXF 631
  GI50: > 100 µM (inactive)
CAKI-1
  GI50: > 100 µM (inactive)
SK-MEL-28
  GI50: > 100 µM (inactive)
SF-295
  GI50: > 100 µM (inactive)
786-0
  GI50: > 100 µM (inactive)
OVCAR-5
  GI50: > 100 µM (inactive)
HCT-15
  GI50: > 100 µM
M14
  GI50: > 100 µM (inactive)
SNB-19
  GI50: > 100 µM (inactive)
HCC 2998
  GI50: > 100 µM (inactive)
SN12C
  GI50: > 100 µM (inactive)
DMS-114
  GI50: > 100 µM (inactive)
SF-539
  GI50: > 100 µM (inactive)
ACHN
  GI50: > 100 µM (inactive)
NCI-H460
  GI50: > 100 µM (inactive)
TK-10
  GI50: > 100 µM (inactive)
NCI-H226
  GI50: > 100 µM (inactive)
OVCAR-4
  GI50: > 100 µM (inactive)
Malme-3M
  GI50: > 100 µM (inactive)
UO-31
  GI50: > 100 µM (inactive)
UACC-62
  GI50: > 100 µM (inactive)
OVCAR-8
  GI50: > 100 µM (inactive)
SK-MEL-5
  GI50: > 100 µM (inactive)
SK-MEL-2
  GI50: > 100 µM (inactive)
SK-OV-3
  GI50: > 100 µM (inactive)
SF-268
  GI50: > 100 µM (inactive)
EKVX
  GI50: > 100 µM (inactive)
MOLT-4
  GI50: > 100 µM (inactive)

## N/N=C1\C(=O)N(c2ccc(Cl)c(Cl)c2)C(=O)C1C(=O)Nc1ccc(Cl)c(Cl)c1 (stereo not drawn)
DLD-1
  GI50: 64 µM (inactive)
KM12
  GI50: 50.7 µM (inactive)
KM-20L2
  GI50: 48.4 µM (inactive)
A498
  GI50: 44.3 µM (inactive)
LXFL 529
  GI50: 46.5 µM (inactive)
HOP-92
  GI50: 48.1 µM (inactive)
SNB-78
  GI50: 24.7 µM (inactive)
CCRF-CEM
  GI50: 34.4 µM (inactive)
A549
  GI50: 42.9 µM (inactive)
IGROV-1
  GI50: 73.8 µM (inactive)
HT-29
  GI50: 49.9 µM (inactive)
UACC-257
  GI50: 71 µM (inactive)
OVCAR-3
  GI50: 49.9 µM (inactive)
NCI-H522
  GI50: 50.9 µM (inactive)
U-251
  GI50: 31.1 µM (inactive)
SNB-75
  GI50: > 100 µM (inactive)
HL-60
  GI50: 74.5 µM (inactive)
RPMI-8226
  GI50: > 100 µM (inactive)
SW-620
  GI50: 91.4 µM (inactive)
M19-MEL
  GI50: > 100 µM (inactive)
HOP-18
  GI50: 21.6 µM (inactive)
HOP-62
  GI50: 41.4 µM (inactive)
NCI-H23
  GI50: 40.6 µM (inactive)
K562
  GI50: 34.8 µM (inactive)
RXF 631
  GI50: 59.2 µM (inactive)
RXF 393
  GI50: > 100 µM (inactive)
SK-MEL-28
  GI50: 31 µM (inactive)
SF-295
  GI50: 31.9 µM (inactive)
786-0
  GI50: 89.5 µM (inactive)
OVCAR-5
  GI50: 88.7 µM (inactive)
HCT-15
  GI50: 50.7 µM
M14
  GI50: > 100 µM (inactive)
SNB-19
  GI50: 28.2 µM (inactive)
HCC 2998
  GI50: 62.4 µM (inactive)
SN12C
  GI50: 51.5 µM (inactive)
DMS-114
  GI50: 57.5 µM (inactive)
SF-539
  GI50: 79.6 µM (inactive)
ACHN
  GI50: 43.2 µM (inactive)
NCI-H460
  GI50: 54.5 µM (inactive)
TK-10
  GI50: > 100 µM (inactive)
OVCAR-4
  GI50: 80.4 µM (inactive)
HCT-116
  GI50: 75.2 µM (inactive)
Malme-3M
  GI50: > 100 µM (inactive)
UO-31
  GI50: 19.8 µM (inactive)
UACC-62
  GI50: 51.4 µM (inactive)
OVCAR-8
  GI50: 42.8 µM (inactive)
SK-MEL-5
  GI50: 17.5 µM (inactive)
SK-MEL-2
  GI50: 50.4 µM (inactive)
SF-268
  GI50: 55.1 µM (inactive)
EKVX
  GI50: 89.1 µM (inactive)
MOLT-4
  GI50: 42.4 µM (inactive)

## O=C1NC(=S)NC(=O)C1=Cc1cc2c(cc1[N+](=O)[O-])OCO2
DLD-1
  GI50: 67.3 µM (inactive)
COLO 205
  GI50: > 100 µM (inactive)
KM12
  GI50: 40.6 µM (inactive)
KM-20L2
  GI50: > 100 µM (inactive)
A498
  GI50: > 100 µM (inactive)
SNB-78
  GI50: > 100 µM (inactive)
DMS-273
  GI50: 63.1 µM (inactive)
CCRF-CEM
  GI50: 55.3 µM (inactive)
A549
  GI50: > 100 µM (inactive)
IGROV-1
  GI50: > 100 µM (inactive)
UACC-257
  GI50: > 100 µM (inactive)
OVCAR-3
  GI50: > 100 µM (inactive)
NCI-H522
  GI50: > 100 µM (inactive)
U-251
  GI50: > 100 µM (inactive)
SNB-75
  GI50: > 100 µM (inactive)
HL-60
  GI50: 35.8 µM (inactive)
RPMI-8226
  GI50: 42.2 µM (inactive)
SW-620
  GI50: 39.1 µM (inactive)
M19-MEL
  GI50: > 100 µM (inactive)
HOP-18
  GI50: > 100 µM (inactive)
HOP-62
  GI50: > 100 µM (inactive)
K562
  GI50: 41.8 µM (inactive)
RXF 631
  GI50: 97.3 µM (inactive)
CAKI-1
  GI50: 94.4 µM (inactive)
RXF 393
  GI50: > 100 µM (inactive)
SR
  GI50: 35.9 µM (inactive)
SK-MEL-28
  GI50: > 100 µM (inactive)
786-0
  GI50: 62.8 µM (inactive)
HCT-15
  GI50: 39.7 µM
M14
  GI50: 77.6 µM (inactive)
SNB-19
  GI50: > 100 µM (inactive)
HCC 2998
  GI50: > 100 µM (inactive)
SN12C
  GI50: 74.6 µM (inactive)
DMS-114
  GI50: 36.8 µM (inactive)
SF-539
  GI50: 83.2 µM (inactive)
ACHN
  GI50: > 100 µM (inactive)
NCI-H460
  GI50: > 100 µM (inactive)
TK-10
  GI50: > 100 µM (inactive)
NCI-H226
  GI50: > 100 µM (inactive)
OVCAR-4
  GI50: > 100 µM (inactive)
HCT-116
  GI50: 54.1 µM (inactive)
Malme-3M
  GI50: > 100 µM (inactive)
UO-31
  GI50: > 100 µM (inactive)
UACC-62
  GI50: > 100 µM (inactive)
OVCAR-8
  GI50: 73.3 µM (inactive)
SK-MEL-5
  GI50: > 100 µM (inactive)
SK-MEL-2
  GI50: > 100 µM (inactive)
SK-OV-3
  GI50: > 100 µM (inactive)
SF-268
  GI50: > 100 µM (inactive)
EKVX
  GI50: > 100 µM (inactive)
MOLT-4
  GI50: 51.4 µM (inactive)
